Measured values as given in PMC11887051, “Discovery of ONO-2920632 (VU6011887): A Highly Selective and CNS Penetrant TREK-2 (TWIK-Related K+ Channel 2) Preferring Activator In Vivo Tool Compound” (ACS Chemical Neuroscience, 2025).

Key:
TREK-1 [1] = target: T1, TREK-1 (Homo sapiens, UniProt O95069); assay: TREK-1 thallium flux assay (hTREK-1/CHO); type: cell-based; set-up: host or cells: CHO; conditions: for Emax: % activation relative to 10 µM BL-1249
T1 sequence (O95069 1-426): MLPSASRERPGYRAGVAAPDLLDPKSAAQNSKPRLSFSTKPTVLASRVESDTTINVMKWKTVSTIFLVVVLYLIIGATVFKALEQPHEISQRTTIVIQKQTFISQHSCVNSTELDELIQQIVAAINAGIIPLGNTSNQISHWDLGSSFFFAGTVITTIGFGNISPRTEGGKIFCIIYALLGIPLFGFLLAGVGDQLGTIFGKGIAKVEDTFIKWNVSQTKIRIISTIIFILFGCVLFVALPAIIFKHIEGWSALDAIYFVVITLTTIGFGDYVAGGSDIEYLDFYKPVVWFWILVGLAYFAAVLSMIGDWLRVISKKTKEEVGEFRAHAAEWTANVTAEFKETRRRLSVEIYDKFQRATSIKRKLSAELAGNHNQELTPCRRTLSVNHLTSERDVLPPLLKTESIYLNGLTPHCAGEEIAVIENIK
Procedure: (§1) Procedures for Biological Experiments
TREK-1 and TREK-2 thallium flux assay protocol
CHO cells stably expressing human TREK-1 (hTREK-1/CHO) were constructed at Evotec. […]
(§2) hTREK-1/CHO or hTREK-2/HEK were plated in 384-well plates at a density of 1.0x10^4 cells/well or 2.0x10^4 cells/well, respectively, and cultured overnight. After the wash by HBSS + 20 mM HEPES buffer, cells were loaded with Thallos dye for 1 hour at room temperature. After the wash […]
(§3) dissolved with HBSS + 20mM HEPES buffer were added to each well. After 10 minutes incubation at room temperature, thallium stimulus buffer were added to each well and the fluorescent intensity are measured by Panoptic. The final thallium concentration was 0.36 mM in […]
(§4) TREK-1 or 0.24 mM in TREK-2, respectively. […]

TREK-2 [2] = target: T2, TREK-2 (Homo sapiens, UniProt P57789); assay: TREK-2 thallium flux assay (hTREK-2/HEK); type: cell-based; set-up: expressed in transfected cells; host or cells: HEK293; conditions: for Emax: % activation relative to 10 µM BL-1249
T2 sequence (P57789 1-538): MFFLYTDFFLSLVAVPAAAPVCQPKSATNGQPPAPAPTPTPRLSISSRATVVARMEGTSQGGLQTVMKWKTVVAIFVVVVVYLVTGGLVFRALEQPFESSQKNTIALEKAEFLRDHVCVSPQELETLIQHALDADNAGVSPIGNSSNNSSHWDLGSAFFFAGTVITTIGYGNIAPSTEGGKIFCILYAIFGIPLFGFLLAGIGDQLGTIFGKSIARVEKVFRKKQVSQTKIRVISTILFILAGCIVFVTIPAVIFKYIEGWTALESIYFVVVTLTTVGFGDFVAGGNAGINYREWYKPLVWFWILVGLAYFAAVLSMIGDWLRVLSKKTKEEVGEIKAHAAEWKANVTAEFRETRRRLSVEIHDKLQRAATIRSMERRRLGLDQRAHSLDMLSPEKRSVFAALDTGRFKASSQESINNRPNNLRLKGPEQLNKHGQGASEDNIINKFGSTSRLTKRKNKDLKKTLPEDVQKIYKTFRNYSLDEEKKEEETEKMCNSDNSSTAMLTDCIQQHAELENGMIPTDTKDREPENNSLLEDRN
Procedure: as §1
TREK-1 and TREK-2 thallium flux assay protocol […]
as §2, with “HEK293 cells stably expressing human TREK-2 (hTREK-2/HEK) were constructed at Ono. hTREK-1/CHO” for “hTREK-1/CHO”
as §3, §4

TREK-1 [3] = target: T1, TREK-1; set-up: method as in PMID 31072652; conditions: previously reported; cited from earlier work
[4] = set-up: method as in PMID 31072652; conditions: previously reported; cited from earlier work
[5] = set-up: method as in PMID 31072652; conditions: previously reported; cited from earlier work; remark: listed apart in the source
TREK-2 [6] = target: T2, TREK-2; set-up: method as in PMID 31072652; conditions: previously reported; cited from earlier work
TASK-3 = assay: human 86Rb flux K2P selectivity panel; type: cell-based; conditions: 86Rb flux K2P panel
TRAAK = assay: human 86Rb flux K2P selectivity panel; type: cell-based; conditions: 86Rb flux K2P panel
TRESK = target: T3, TRESK (Homo sapiens, UniProt Q7Z418); assay: human 86Rb flux K2P selectivity panel; type: cell-based; conditions: 86Rb flux K2P panel
T3 sequence (Q7Z418 1-384): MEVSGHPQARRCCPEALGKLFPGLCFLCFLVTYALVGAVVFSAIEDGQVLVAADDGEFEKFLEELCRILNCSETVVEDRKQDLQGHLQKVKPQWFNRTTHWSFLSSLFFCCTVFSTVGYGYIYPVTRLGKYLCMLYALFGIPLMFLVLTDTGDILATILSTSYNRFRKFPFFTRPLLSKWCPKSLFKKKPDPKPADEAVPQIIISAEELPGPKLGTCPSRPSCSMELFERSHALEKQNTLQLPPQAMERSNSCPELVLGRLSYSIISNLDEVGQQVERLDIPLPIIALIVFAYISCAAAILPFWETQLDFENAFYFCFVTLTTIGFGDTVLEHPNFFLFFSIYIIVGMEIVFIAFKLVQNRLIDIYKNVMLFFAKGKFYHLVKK

mouse TREK-1 = target: T4, mouse TREK-1 (Mus musculus, UniProt P97438); assay: mouse TREK-1 MPC assay; type: cell-based; conditions: manual patch clamp
T4 sequence (P97438 1-426): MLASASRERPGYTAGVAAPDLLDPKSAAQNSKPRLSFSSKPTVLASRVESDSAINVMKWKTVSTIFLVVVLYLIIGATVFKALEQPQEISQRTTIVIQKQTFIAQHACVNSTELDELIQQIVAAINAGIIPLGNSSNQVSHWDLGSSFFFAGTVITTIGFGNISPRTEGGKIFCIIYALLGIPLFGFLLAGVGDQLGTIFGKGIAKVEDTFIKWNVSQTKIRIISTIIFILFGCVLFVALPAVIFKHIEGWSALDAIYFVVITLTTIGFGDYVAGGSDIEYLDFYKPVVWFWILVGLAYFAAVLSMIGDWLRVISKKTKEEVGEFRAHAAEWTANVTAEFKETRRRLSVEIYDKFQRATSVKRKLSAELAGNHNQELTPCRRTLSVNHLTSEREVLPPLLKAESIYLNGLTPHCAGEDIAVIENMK

mouse TREK-2 = target: T5, mouse TREK-2 (Mus musculus, UniProt Q8BUW1); assay: mouse TREK-2 MPC assay; type: cell-based; conditions: mouse, manual patch clamp
T5 sequence (Q8BUW1 1-535): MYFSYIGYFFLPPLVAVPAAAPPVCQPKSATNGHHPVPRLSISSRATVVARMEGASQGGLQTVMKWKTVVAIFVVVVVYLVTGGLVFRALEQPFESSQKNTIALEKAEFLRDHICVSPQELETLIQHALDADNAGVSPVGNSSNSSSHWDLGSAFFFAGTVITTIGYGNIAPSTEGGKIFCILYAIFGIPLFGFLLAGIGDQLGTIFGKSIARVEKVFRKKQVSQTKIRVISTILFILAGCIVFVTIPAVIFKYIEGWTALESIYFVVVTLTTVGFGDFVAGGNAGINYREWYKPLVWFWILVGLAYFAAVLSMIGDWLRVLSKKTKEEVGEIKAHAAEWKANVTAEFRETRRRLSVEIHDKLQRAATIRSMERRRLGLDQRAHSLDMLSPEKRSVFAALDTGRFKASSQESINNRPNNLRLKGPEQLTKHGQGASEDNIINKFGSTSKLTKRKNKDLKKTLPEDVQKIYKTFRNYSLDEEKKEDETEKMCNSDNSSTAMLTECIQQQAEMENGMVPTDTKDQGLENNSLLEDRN

TASK-1 = assay: human 86Rb flux K2P selectivity panel; type: cell-based; conditions: 86Rb flux K2P panel
TASK-2 = assay: human 86Rb flux K2P selectivity panel; type: cell-based; conditions: 86Rb flux K2P panel
TWIK-2 = assay: human 86Rb flux K2P selectivity panel; type: cell-based; conditions: 86Rb flux K2P panel
TREK-1 [7] = target: T1, TREK-1; assay: human 86Rb flux K2P selectivity panel; type: cell-based; conditions: data is not shown
TREK-2 [8] = target: T2, TREK-2; assay: human 86Rb flux K2P selectivity panel; type: cell-based; conditions: data is not shown
[9] = control compound, table footnote

| SMILES | TREK-1 Emax (TREK-1 [3]) | rat plasma fu [4] | rat CLhep (predicted hepatic clearance) [5] | TREK-2 Emax (TREK-2 [6]) | EC50 (TREK-1 [1]) | Emax (TREK-1 [1]) | EC50 (TREK-2 [2]) | Emax (TREK-2 [2]) | also measured |
| --- | --- | --- | --- | --- | --- | --- | --- | --- | --- |
| c1ccc(-c2nnn[nH]2)c(Nc2cccc3c2CCCC3)c1 [BL-1249, (5,6,7,8-tetrahydro-naphthalen-1-yl)-[2-(1H-tetrazol-5-yl)-phenyl]-amine, reference compound] | 109 ± 14% | < 0.001 | > 50.9 mL/min/kg | 133 ± 23% | – | – | – | – | IC50 (TREK-1 [1]; [9]): 5.2 µM; IC50 (TREK-2 [2]; [9]): 7.3 µM |
| O=C(Nc1cc(F)c(Br)cc1C(=O)O)c1ccc(SC(F)(F)F)cc1 [Compound 8] | 101% | 0.041 | 35.5 mL/min/kg | 84% | – | – | – | – | – |
| COc1cc(OC(F)(F)F)ccc1CNC(=O)c1ccc(-n2cncn2)nc1 [Compound 14b] | – | – | – | – | 1.5 µM | 42% | 0.41 µM | 158% | Fold TREK-2 (TREK-2 [2]; TREK-2 preference over TREK-1, thallium flux): 3.7 fold |
| Cc1cc(OC(F)(F)F)ccc1CNC(=O)c1ccc(-n2cncn2)nc1 [Compound 14c] | – | – | – | – | ~1.1 µM | 20% | 0.36 µM | 109% | selectivity against TASK-3 over TREK-2 (TASK-3): > 43 fold; selectivity against TRAAK over TREK-2 (TRAAK): > 43 fold; selectivity against TRESK over TREK-2 (TRESK): > 43 fold; EC50 (mouse TREK-1): 2.8 µM; Emax (mouse TREK-1): 31%; EC50 (mouse TREK-2): 0.31 µM; Emax (mouse TREK-2): 72%; selectivity against TASK-1 over TREK-2 (TASK-1): > 43 fold; selectivity against TASK-2 over TREK-2 (TASK-2): > 43 fold; selectivity against TWIK-2 over TREK-2 (TWIK-2): > 43 fold; activity at TREK-1 in 86Rb flux panel (TREK-1 [7]): partial TREK-1 activator; activity at TREK-2 in 86Rb flux panel (TREK-2 [8]): submicromolar TREK-2 activator |
